Entries after “also recorded” stand apart in the source; their conditions may differ.
What was measured:
[1] = system: INS-1 832/3 GIPR KO cells; test: Insulin secretion assay, GIPR KO cells; format: cell-based, rat; settings: 100 nM, 11 mM glucose; n = 4
Experimental: At the end of the treatments, the supernatant containing the secreted insulin was collected, centrifuged at 1000g for 3 minutes, and transferred to a fresh tube. To determine total insulin content, cells were lysed using KRBH buffer + 1% w/v BSA + 1% v/v Triton X-100 (Sigma). The lysates were sonicated 3 × 10 seconds in a water bath sonicator and centrifuged at 10 000g for 10 minutes, and the supernatants collected. The samples were stored at −20 °C until the insulin concentration was determined using an Insulin Ultra-Sensitive HTRF Assay kit (62IN2PEG, Cisbio, Codolet, France) according to the manufacturer's instructions.
Figure 7. Functional analysis of GLP-1R vs GIPR signaling in beta cells. […] Data are mean ± SEM, compared by paired t tests; *P < .05; ns, nonsignificant.

SNAP-tagged human GIPR = test: Colocalization with SNX27-GFP, SNAP-GIPR; format: cell-based; settings: 3 hours stimulation with 100 nM
[2] = system: cAMP response in mouse islet beta cells; test: cAMP FRET assay, Pdx1-CreERT/CAMPER islets; format: cell-based; settings: 100 nM, n = 4
Experimental: Nondiabetic mice of both sexes were used for islet isolation. Briefly, pancreata were infused via the common bile duct with RPMI-1640 medium containing 1 mg/mL collagenase from Clostridium histolyticum (Nordmark Biochemicals), dissected, and incubated in a water bath at 37 °C for 10 minutes. Islets were subsequently washed and purified using a Histopaque gradient (Histopaque-1119, 11191, Sigma-Aldrich, and Histopaque-1083, 10831, Sigma-Aldrich). Isolated islets were allowed to recover overnight at 37 °C in 5% CO2 in RPMI-1640 supplemented with 10% FBS and 1% penicillin/streptomycin. […]
CAMPER reporter mice ([30]), with conditional expression of the cAMP fluorescence resonance energy transfer (FRET) biosensor ^TEPAC^VV ([31]), were purchased from Jackson Laboratory (Stock No: 032205) and crossed with Pdx1-Cre^ERT mice (in house) to generate mice with inducible ^TEPAC^VV expression from pancreatic beta cells, used to isolate islets for ex vivo cAMP FRET assays. […] Raw intensity traces for YFP and CFP fluorescence were extracted from whole islet ROIs using Fiji and YFP/CFP ratios calculated for each ROI and time point. Responses were plotted relative to the average fluorescence intensity per islet during the 6 mM glucose baseline period, before agonist addition. […]

GIPR-SmBiT = test: Mini-G protein/β-arrestin 2 recruitment NanoBiT, GIPR; format: cell-based; settings: 100 nM GIP, n = 5
Source text: (§1) Here the SmBiT was cloned in frame at the C-terminus of the GLP-1R and the GIPR by substitution of the Tango sequence on FLAG-tagged GLP-1R-Tango or GIPR-Tango (a gift from Prof. Bryan Roth, University of North Carolina, USA; Addgene plasmids #66291 and #66294), respectively. Mini-Gs, mini-Gq, and mini-Gi plasmids, tagged at the N-terminus with LgBiT, were a gift from Prof. Nevin Lambert, Medical College of Georgia, USA. For β-arrestin 2 recruitment assays, β-arrestin 2 fused at the N-terminus to LgBiT (LgBiT-β-arrestin 2; Promega, plasmid no. CS1603B118) was chosen as it has previously been used successfully with other class B GPCRs. […]
(§2) All NanoBiT and NanoBRET readings were obtained in a Flexstation 3 plate reader. […] Readings were normalized to well baseline and then to average vehicle-induced signal to establish the agonist-induced effect. AUCs from response curves were calculated for each agonist concentration and fitted to four-parameter curves using Prism 9 (GraphPad).
(§3) Figure 5. […] (A) Kinetics of Gαs, Gαq, Gαi, and β-arrestin 2 recruitment to the GLP-1R assessed by NanoBiT complementation assay in INS-1 832/3 GLP-1R KO cells transiently expressing GLP-1R-SmBiT and the corresponding mini-G protein subtype or β-arrestin 2. […]

GLP-1R-SmBiT = test: Mini-G protein/β-arrestin 2 recruitment NanoBiT, GLP-1R; format: cell-based; settings: 100 nM GLP-1, 30 minutes, n = 5
Source text: as §1, §2, §3

**Q.** For GIP(1-42), which “Insulin secretion response in GIPR KO cells” value [1] is on record?
**A.** abolished

**Q.** What about the “SNAP-GIPR colocalization with SNX27” value (SNAP-tagged human GIPR) of the same substance?
**A.** sustained

**Q.** What about the “cAMP response, GIP compared with GLP-1, mouse islet beta cells” value [2] of the same substance?
**A.** a tendency replicated in primary mouse islet beta cells; also recorded: nonsignificant tendency toward increased cAMP

**Q.** What about the “GIPR responses for all readouts (Gαs, Gαq, Gαi, β-arrestin 2) compared with GLP-1R” value (GIPR-SmBiT; 30 minutes) of the same substance?
**A.** markedly reduced for all readouts

**Q.** And the “Gαs recruitment to the GIPR” value (GIPR-SmBiT)?
**A.** almost as low as those obtained for Gαi

**Q.** Which “Gαi coupling of GLP-1R” value (GLP-1R-SmBiT) does the source give for GLP-1(7-36)NH2 here?
**A.** minimum coupling

**Q.** What about the “Gαs coupling of GLP-1R” value (GLP-1R-SmBiT) of the same substance?
**A.** preferentially coupled to Gαs

Source: article PMC10016038, “Enhanced Endosomal Signaling and Desensitization of GLP-1R vs GIPR in Pancreatic Beta Cells” (Endocrinology, 2023)
